Experimental data as given in US12172983B2, “EGFR inhibitors” (Blueprint Medicines Corporation, priority 2019, dated 2024).
Read-outs that look alike come from different tables or passages of the source.

How the values were obtained:
EGFR (L858R T790M C797S) = target: T1, EGFR (L858R T790M C797S) (Homo sapiens, UniProt P00533, C797S/L858R/T790M); assay: Biochemical EGFR inhibition assay (Caliper mobility shift), EGFR LRTMCS mutant; conditions: inhibitory activity against EGFR LRTMCS mutant; apparent IC50; read-out: Ext Enz LRTMCS
T1 construct: purchased SignalChem E10-122VG
T1 sequence (P00533 25-1210 T790M/C797S/L858R): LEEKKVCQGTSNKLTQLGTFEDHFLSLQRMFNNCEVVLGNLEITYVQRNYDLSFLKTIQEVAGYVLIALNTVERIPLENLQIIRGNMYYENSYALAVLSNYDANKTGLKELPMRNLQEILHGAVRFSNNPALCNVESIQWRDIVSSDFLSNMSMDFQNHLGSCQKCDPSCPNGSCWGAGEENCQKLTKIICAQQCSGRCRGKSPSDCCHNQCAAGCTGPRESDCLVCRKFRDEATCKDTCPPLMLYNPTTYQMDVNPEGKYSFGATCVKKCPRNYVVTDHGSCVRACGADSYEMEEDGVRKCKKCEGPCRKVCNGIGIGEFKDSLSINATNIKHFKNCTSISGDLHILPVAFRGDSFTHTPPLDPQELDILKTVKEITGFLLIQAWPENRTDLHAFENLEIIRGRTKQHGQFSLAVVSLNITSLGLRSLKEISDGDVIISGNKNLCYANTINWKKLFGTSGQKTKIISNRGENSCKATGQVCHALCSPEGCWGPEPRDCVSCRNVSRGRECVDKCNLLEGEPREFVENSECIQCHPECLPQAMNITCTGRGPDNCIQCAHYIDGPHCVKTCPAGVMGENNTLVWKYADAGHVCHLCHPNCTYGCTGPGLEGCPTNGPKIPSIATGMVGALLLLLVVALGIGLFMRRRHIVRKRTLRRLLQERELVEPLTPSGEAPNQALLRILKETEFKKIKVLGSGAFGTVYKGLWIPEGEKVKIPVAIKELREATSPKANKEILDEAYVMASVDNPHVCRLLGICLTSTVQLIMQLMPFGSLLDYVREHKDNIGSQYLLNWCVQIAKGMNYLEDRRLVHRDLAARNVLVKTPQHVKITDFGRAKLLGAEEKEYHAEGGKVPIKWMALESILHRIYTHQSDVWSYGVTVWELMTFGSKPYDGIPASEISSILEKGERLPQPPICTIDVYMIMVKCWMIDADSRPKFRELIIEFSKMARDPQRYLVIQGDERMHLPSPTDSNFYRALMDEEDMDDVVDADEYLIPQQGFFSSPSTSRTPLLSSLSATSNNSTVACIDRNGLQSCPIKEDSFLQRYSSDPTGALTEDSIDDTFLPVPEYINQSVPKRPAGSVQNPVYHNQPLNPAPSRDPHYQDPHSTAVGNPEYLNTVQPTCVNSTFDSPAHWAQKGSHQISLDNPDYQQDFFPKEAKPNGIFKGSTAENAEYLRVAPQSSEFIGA
Method in brief: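 Caliper mobility shift read-out: product and substrate peptides separated by electrophoresis and quantified. Reactions at 25° C. taken to 10–20% peptide phosphorylation, quenched with 35 mM EDTA. Apparent IC50 from percent activity vs log [compound].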

[1] = system: phosphorylation of EGFR (Tyr1068) in NCI-H1975 cell line that harbors the EGFR L858R T790M mutations; assay: NCI-H1975 pEGFR AlphaLISA assay; assay type: cell-based; conditions: 4-5 hours incubation, read-out: Ext pEGFR H1975
Method in brief: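 Phospho-EGFR Tyr1068 AlphaLISA readout: lysates taken from compound-treated H1975 cells (L858R T790M EGFR) after a 4-5 h exposure at 37 °C. Cells had adhered overnight beforehand. IC50 derived by plotting % pEGFR inhibition against log compound concentration.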

[2] = Homo sapiens, NCI-H1975, inhibition of phosphorylation of mutant EGFR in NCI-H1975 cells
[3] = inhibition of phosphorylation of mutant EGFR in NCI-H1975 cells

Structure (SMILES)	IC50 (EGFR (L858R T790M C797S)) [nM]	IC50 [1, 2] [nM]	IC50 [1, 3] [nM]
CCS(=O)(=O)CC1CN(c2ccc(C(C)C)c3cc(Nc4ccnc(N5C[C@@H](O)[C@@H](OC)C(F)(F)C5)n4)ncc23)C1 (single isomer, unassigned) [Compound 294, (3R,4R)-1-{4-[(8-{3-[(ethanesulfonyl)methyl]azetidin-1-yl}-5-(propan-2-yl)isoquinolin-3-yl)amino]pyrimidin-2-yl}-5,5-difluoro-4-methoxypiperidin-3-ol or (3S,4S)-1-{4-[(8-{3-[(ethanesulfonyl)methyl]azetidin-1-yl}-5-(propan-2-yl)isoquinolin-3-yl)amino]pyrimidin-2-yl}-5,5-difluoro-4-methoxypiperidin-3-ol]	20.1 to 30	≤ 10	
CO[C@H]1CCN(c2nccc(Nc3cc4c(C(C)C)ccc(N5C[C@H](CS(C)(=O)=O)[C@H]5C)c4cn3)n2)C[C@H]1OCCO (single isomer, unassigned) [Compound 295, 2-{[(3R,4S)-1-[4-({8-[(2R,3S)-3-(methanesulfonylmethyl)-2-methylazetidin-1-yl]-5-(propan-2-yl)isoquinolin-3-yl}amino)pyrimidin-2-yl]-4-methoxypiperidin-3-yl]oxy}ethan-1-ol or 2-{[(3S,4R)-1-[4-({8-[(2R,3S)-3-(methanesulfonylmethyl)-2-methylazetidin-1-yl]-5-(propan-2-yl)isoquinolin-3-yl}amino)pyrimidin-2-yl]-4-methoxypiperidin-3-yl]oxy}ethan-1-ol]	≤ 15	≤ 10	
CO[C@@H]1CCN(c2nccc(Nc3cc4c(C(C)C)ccc(N5C[C@H](CS(C)(=O)=O)[C@H]5C)c4cn3)n2)C[C@@H]1OCCO (single isomer, unassigned) [Compound 296, 2-{[(3S,4R)-1-[4-({8-[(2R,3S)-3-(methanesulfonylmethyl)-2-methylazetidin-1-yl]-5-(propan-2-yl)isoquinolin-3-yl}amino)pyrimidin-2-yl]-4-methoxypiperidin-3-yl]oxy}ethan-1-ol or 2-{[(3R,4S)-1-[4-({8-[(2R,3S)-3-(methanesulfonylmethyl)-2-methylazetidin-1-yl]-5-(propan-2-yl)isoquinolin-3-yl}amino)pyrimidin-2-yl]-4-methoxypiperidin-3-yl]oxy}ethan-1-ol]	30.1 to 100	10.1 to 20	
CNCCO[C@@H]1CCN(c2nccc(Nc3cc4c(C(C)C)ccc(N5C[C@H](CS(C)(=O)=O)[C@H]5C)c4cn3)n2)CC1(F)F (single isomer, unassigned) [Compound 300, N-{2-[(4R)-3,3-difluoro-4-[2-(methylamino)ethoxy]piperidin-1-yl]pyrimidin-4-yl}-8-[(2R,3S)-3-(methanesulfonylmethyl)-2-methylazetidin-1-yl]-5-(propan-2-yl)isoquinolin-3-amine or N-{2-[(4S)-3,3-difluoro-4-[2-(methylamino)ethoxy]piperidin-1-yl]pyrimidin-4-yl}-8-[(2R,3S)-3-(methanesulfonylmethyl)-2-methylazetidin-1-yl]-5-(propan-2-yl)isoquinolin-3-amine]	≤ 15	≤ 10	
CNCCO[C@@H]1CCN(c2nccc(Nc3cc4c(C(C)C)ccc(N5C[C@H](CS(C)(=O)=O)[C@H]5C)c4cn3)n2)CC1(F)F (single isomer, unassigned) [Compound 301, N-{2-[(4S)-3,3-difluoro-4-[2-(methylamino)ethoxy]piperidin-1-yl]pyrimidin-4-yl}-8-[(2R,3S)-3-(methanesulfonylmethyl)-2-methylazetidin-1-yl]-5-(propan-2-yl)isoquinolin-3-amine or N-{2-[(4R)-3,3-difluoro-4-[2-(methylamino)ethoxy]piperidin-1-yl]pyrimidin-4-yl}-8-[(2R,3S)-3-(methanesulfonylmethyl)-2-methylazetidin-1-yl]-5-(propan-2-yl)isoquinolin-3-amine]	≤ 15		≤ 10

Results, then the molecule that gave them:

IC50 (EGFR (L858R T790M C797S)) [nM]	IC50 [1, 2] [nM]	IC50 [1, 3] [nM]	Structure (SMILES)
15.1 to 20	≤ 10		CCS(=O)(=O)C[C@H]1CN(c2ccc(C(C)C)c3cc(Nc4ccnc(N5CC[C@@H](OCCO)C(F)(F)C5)n4)ncc23)[C@@H]1C (single isomer, unassigned) [Compound 302, 2-{[(4R)-1-[4-({8-[(2R,3S)-3-[(ethanesulfonyl)methyl]-2-methylazetidin-1-yl]-5-(propan-2-yl)isoquinolin-3-yl}amino)pyrimidin-2-yl]-3,3-difluoropiperidin-4-yl]oxy}ethan-1-ol or 2-{[(4S)-1-[4-({8-[(2R,3S)-3-[(ethanesulfonyl)methyl]-2-methylazetidin-1-yl]-5-(propan-2-yl)isoquinolin-3-yl}amino)pyrimidin-2-yl]-3,3-difluoropiperidin-4-yl]oxy}ethan-1-ol]
15.1 to 20		≤ 10	CCS(=O)(=O)C[C@H]1CN(c2ccc(C(C)C)c3cc(Nc4ccnc(N5CC[C@@H](OCCO)C(F)(F)C5)n4)ncc23)[C@@H]1C (single isomer, unassigned) [Compound 303, 2-{[(4S)-1-[4-({8-[(2R,3S)-3-[(ethanesulfonyl)methyl]-2-methylazetidin-1-yl]-5-(propan-2-yl)isoquinolin-3-yl}amino)pyrimidin-2-yl]-3,3-difluoropiperidin-4-yl]oxy}ethan-1-ol or 2-{[(4R)-1-[4-({8-[(2R,3S)-3-[(ethanesulfonyl)methyl]-2-methylazetidin-1-yl]-5-(propan-2-yl)isoquinolin-3-yl}amino)pyrimidin-2-yl]-3,3-difluoropiperidin-4-yl]oxy}ethan-1-ol]
≤ 15	≤ 10		CC(C)c1ccc(N2C[C@H](CS(C)(=O)=O)[C@H]2C)c2cnc(Nc3ccnc(N4CC[C@@H](OCCN(C)C)C(F)(F)C4)n3)cc12 (single isomer, unassigned) [Compound 304, N-{2-[(4R)-4-[2-(dimethylamino)ethoxy]-3,3-difluoropiperidin-1-yl]pyrimidin-4-yl}-8-[(2R,3S)-3-(methanesulfonylmethyl)-2-methylazetidin-1-yl]-5-(propan-2-yl)isoquinolin-3-amine or N-{2-[(4S)-4-[2-(dimethylamino)ethoxy]-3,3-difluoropiperidin-1-yl]pyrimidin-4-yl}-8-[(2R,3S)-3-(methanesulfonylmethyl)-2-methylazetidin-1-yl]-5-(propan-2-yl)isoquinolin-3-amine]
≤ 15		≤ 10	CC(C)c1ccc(N2C[C@H](CS(C)(=O)=O)[C@H]2C)c2cnc(Nc3ccnc(N4CC[C@@H](OCCN(C)C)C(F)(F)C4)n3)cc12 (single isomer, unassigned) [Compound 305, N-{2-[(4S)-4-[2-(dimethylamino)ethoxy]-3,3-difluoropiperidin-1-yl]pyrimidin-4-yl}-8-[(2R,3S)-3-(methanesulfonylmethyl)-2-methylazetidin-1-yl]-5-(propan-2-yl)isoquinolin-3-amine or N-{2-[(4R)-4-[2-(dimethylamino)ethoxy]-3,3-difluoropiperidin-1-yl]pyrimidin-4-yl}-8-[(2R,3S)-3-(methanesulfonylmethyl)-2-methylazetidin-1-yl]-5-(propan-2-yl)isoquinolin-3-amine]
20.1 to 30	20.1 to 30		CN[C@H]1CCN(c2nccc(Nc3cc4c(C(C)C)ccc(N5C[C@H](CS(C)(=O)=O)[C@H]5C)c4cn3)n2)C[C@H]1F (single isomer, unassigned) [Compound 306, N-{2-[(3R,4S)-3-fluoro-4-(methylamino)piperidin-1-yl]pyrimidin-4-yl}-8-[(2R,3S)-3-(methanesulfonylmethyl)-2-methylazetidin-1-yl]-5-(propan-2-yl)isoquinolin-3-amine or N-{2-[(3S,4R)-3-fluoro-4-(methylamino)piperidin-1-yl]pyrimidin-4-yl}-8-[(2R,3S)-3-(methanesulfonylmethyl)-2-methylazetidin-1-yl]-5-(propan-2-yl)isoquinolin-3-amine]
20.1 to 30		10.1 to 20	CN[C@H]1CCN(c2nccc(Nc3cc4c(C(C)C)ccc(N5C[C@H](CS(C)(=O)=O)[C@H]5C)c4cn3)n2)C[C@H]1F (single isomer, unassigned) [Compound 307, N-{2-[(3S,4R)-3-fluoro-4-(methylamino)piperidin-1-yl]pyrimidin-4-yl}-8-[(2R,3S)-3-(methanesulfonylmethyl)-2-methylazetidin-1-yl]-5-(propan-2-yl)isoquinolin-3-amine or N-{2-[(3R,4S)-3-fluoro-4-(methylamino)piperidin-1-yl]pyrimidin-4-yl}-8-[(2R,3S)-3-(methanesulfonylmethyl)-2-methylazetidin-1-yl]-5-(propan-2-yl)isoquinolin-3-amine]
≤ 15	10.1 to 20		CO[C@H]1CN(c2nccc(Nc3cc4c(C(C)C)cnc(N5C[C@H](CS(C)(=O)=O)[C@H]5C)c4cn3)n2)C[C@@H](F)[C@H]1O (single isomer, unassigned) [Compound 308, (3R,4S,5S)-3-fluoro-1-[4-({8-[(2R,3S)-3-(methanesulfonylmethyl)-2-methylazetidin-1-yl]-5-(propan-2-yl)-2,7-naphthyridin-3-yl}amino)pyrimidin-2-yl]-5-methoxypiperidin-4-ol or (3S,4R,5R)-3-fluoro-1-[4-({8-[(2R,3S)-3-(methanesulfonylmethyl)-2-methylazetidin-1-yl]-5-(propan-2-yl)-2,7-naphthyridin-3-yl}amino)pyrimidin-2-yl]-5-methoxypiperidin-4-ol]
